# Experimental data published in ChEMBL document CHEMBL3137386, “DNDi T. cruzi fenarimol series dataset from which preclinical candidate EPL-BS1246 was identified (see also related datasets CHEMBL2448688 and CHEMBL3137440)”.
# “And” between values parts separate entries of the source, which are not always exact repeats. Equal values may be shown once.
# Test system: not listed separately
# Test: DNDI: Solubility, 24 hour, SGF - pH 1, 37C
# Format: physicochemical
# Details: read-out: Equilibrium
row,SMILES,solubility thermodynamic at 24 h [µg/mL]
1,O=C(C(c1ccc(Cl)cc1)c1cccnc1)N1CCN(c2ccc(C(F)(F)F)cc2)CC1 (stereo unspecified),1500

# Test system: not listed separately
# Test: DNDI: Solubility, 24 hour, FaSSIF buffer - pH 5.8, 37C
# Format: physicochemical
# Details: read-out: Equilibrium
row,SMILES,solubility thermodynamic at 24 h [µg/mL]
1,O=C(C(c1ccc(Cl)cc1)c1cccnc1)N1CCN(c2ccc(C(F)(F)F)cc2)CC1 (stereo unspecified),< 1

# Test system: not listed separately
# Test: DNDI: Protein binding in rat plasma
# Format: ADME, 10116
# Details: read-out: % bound (converted)
row,SMILES,fraction unbound
1,O=C(C(c1ccc(Cl)cc1)c1cccnc1)N1CCN(c2ccc(C(F)(F)F)cc2)CC1 (stereo unspecified),0.027

# Test system: not listed separately
# Test: DNDI: Lipophilicity (gLogD) at pH 3
# Format: physicochemical
# Details: buffer
row,SMILES,chromatographic logD
1,N#Cc1ccc(C(C(=O)N2CCN(c3ccc(C(F)(F)F)cn3)CC2)c2cccnc2)cc1 (stereo unspecified),3.1
2,O=C(C(c1ccc(Cl)cc1)c1cccnc1)N1CCN(c2ccc(C(F)(F)F)cc2)CC1 (stereo unspecified),4.1

# Test system: not listed separately
# Test: (§1) DNDI: Solubility, 24 hour, FaSSIF, 37C
# Format: physicochemical
# Details: read-out: Equilibrium
row,SMILES,solubility thermodynamic at 24 h [µg/mL]
1,O=C(C(c1ccc(Cl)cc1)c1cccnc1)N1CCN(c2ccc(C(F)(F)F)cc2)CC1 (stereo unspecified),75.9

# Test system: not listed separately
# Test: DNDI: Lipophilicity (s.f. LogD) at pH 2
# Format: physicochemical
# Details: buffer
row,SMILES,logD
1,O=C(C(c1ccc(Cl)cc1)c1cccnc1)N1CCN(c2ccc(C(F)(F)F)cc2)CC1 (stereo unspecified),2.71

# Test system: not listed separately
# Test: (§2) DNDI: Metabolism
# Format: ADME, Microsome
# Details: human, microsomes
SMILES,Clint,EH,half-life [h],microsomal CLint [µL/min/mg],t (1 / 2)
N#Cc1ccc(C(C(=O)N2CCN(c3ccc(C(F)(F)F)cn3)CC2)c2cccnc2)cc1 (stereo unspecified),21 µL/min/mg and 23 µL/min/mg,0.56 and 0.54,1,29,83 min and 77 min
O=C(C(c1ccc(Cl)cc1)c1cccnc1)N1CCN(c2ccc(C(F)(F)F)cc2)CC1 (stereo unspecified),,,1.42,20,

# Same assay, conditions: human, microsomes; read-out: EH
row,SMILES,hepatic extraction ratio
1,N#Cc1ccc(C(C(=O)N2CCN(c3ccc(C(F)(F)F)cn3)CC2)c2cccnc2)cc1 (stereo unspecified),0.62
2,O=C(C(c1ccc(Cl)cc1)c1cccnc1)N1CCN(c2ccc(C(F)(F)F)cc2)CC1 (stereo unspecified),0.53

# Test system: not listed separately
# Test: as §2
# Format: ADME, 10116, Microsome
# Details: rat, microsomes
SMILES,half-life [h],microsomal CLint [µL/min/mg]
O=C(C(c1ccc(Cl)cc1)c1cccnc1)N1CCN(c2ccc(C(F)(F)F)cc2)CC1 (stereo unspecified),0.767,38

# Same assay, conditions: rat, microsomes; read-out: EH
row,SMILES,hepatic extraction ratio
1,O=C(C(c1ccc(Cl)cc1)c1cccnc1)N1CCN(c2ccc(C(F)(F)F)cc2)CC1 (stereo unspecified),0.55

# Test system: not listed separately
# Test: DNDI: Solubility, 24 hour, FaSSIF buffer - pH 6.5. 37C
# Format: physicochemical
# Details: read-out: Equilibrium
row,SMILES,solubility thermodynamic at 24 h [µg/mL]
1,O=C(C(c1ccc(Cl)cc1)c1cccnc1)N1CCN(c2ccc(C(F)(F)F)cc2)CC1 (stereo unspecified),< 1

# Test system: not listed separately
# Test: DNDI: pKa
# Format: physicochemical
# Details: not given
row,SMILES,pKa
1,O=C(C(c1ccc(Cl)cc1)c1cccnc1)N1CCN(c2ccc(C(F)(F)F)cc2)CC1 (stereo unspecified),2.62

# Test system: not listed separately
# Test: (§3) DNDI: Solubility, 24 hour, Isotonic phos buffer - pH 2
# Format: physicochemical
# Details: isotonic phosphate buffer, read-out: Equilibrium
row,SMILES,solubility thermodynamic at 24 h [µg/mL]
1,O=C(C(c1ccc(Cl)cc1)c1cccnc1)N1CCN(c2ccc(C(F)(F)F)cc2)CC1 (stereo unspecified),127

# Test system: not listed separately
# Test: DNDI: Protein binding 10% serum RPMI
# Format: ADME
# Details: RPMI with 10% serum; read-out: % bound (converted)
row,SMILES,fraction unbound
1,O=C(C(c1ccc(Cl)cc1)c1cccnc1)N1CCN(c2ccc(C(F)(F)F)cc2)CC1 (stereo unspecified),0.076

# Test system: not listed separately
# Test: as §3
# Format: physicochemical
# Details: isotonic phosphate buffer, read-out: Equilibrium
row,SMILES,solubility thermodynamic at 24 h [µg/mL]
1,O=C(C(c1ccc(Cl)cc1)c1cccnc1)N1CCN(c2ccc(C(F)(F)F)cc2)CC1 (stereo unspecified),< 1

# Test system: not listed separately
# Test: DNDI: Lipophilicity (s.f. LogD) at pH 7.4
# Format: physicochemical
# Details: buffer
row,SMILES,logD
1,O=C(C(c1ccc(Cl)cc1)c1cccnc1)N1CCN(c2ccc(C(F)(F)F)cc2)CC1 (stereo unspecified),5.54

# Target: T1, Cytochrome P450 3A4 (Homo sapiens, UniProt P08684)
# Test: (§4) DNDI: CYP Inhibition
# Format: ADME
# Details: not given
# T1 sequence (P08684 whole entry): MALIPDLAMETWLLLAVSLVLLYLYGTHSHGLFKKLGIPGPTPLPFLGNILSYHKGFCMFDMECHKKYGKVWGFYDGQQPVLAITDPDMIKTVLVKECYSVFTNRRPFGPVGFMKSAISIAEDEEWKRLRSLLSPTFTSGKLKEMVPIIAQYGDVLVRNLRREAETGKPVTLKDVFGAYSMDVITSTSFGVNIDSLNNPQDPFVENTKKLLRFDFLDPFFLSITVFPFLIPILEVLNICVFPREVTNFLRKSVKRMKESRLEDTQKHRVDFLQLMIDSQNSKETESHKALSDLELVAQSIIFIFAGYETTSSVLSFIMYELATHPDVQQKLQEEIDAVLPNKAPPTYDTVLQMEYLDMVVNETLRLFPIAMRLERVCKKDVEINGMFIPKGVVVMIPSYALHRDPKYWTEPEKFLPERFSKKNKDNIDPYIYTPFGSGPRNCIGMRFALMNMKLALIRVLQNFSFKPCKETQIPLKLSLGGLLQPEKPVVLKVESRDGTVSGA
row,SMILES,IC50 [nM]
1,N#Cc1ccc(C(C(=O)N2CCN(c3ccc(C(F)(F)F)cn3)CC2)c2cccnc2)cc1 (stereo unspecified),> 20000

# Test system: not listed separately
# Test: DNDI: Lipophilicity (s.f. LogD water)
# Format: physicochemical
# Details: not given
row,SMILES,logD
1,O=C(C(c1ccc(Cl)cc1)c1cccnc1)N1CCN(c2ccc(C(F)(F)F)cc2)CC1 (stereo unspecified),5.44

# Test system: not listed separately
# Test: DNDI: Protein binding in mouse plasma
# Format: ADME, 10090
# Details: read-out: % bound (converted)
row,SMILES,fraction unbound
1,O=C(C(c1ccc(Cl)cc1)c1cccnc1)N1CCN(c2ccc(C(F)(F)F)cc2)CC1 (stereo unspecified),0.014

# Test system: not listed separately
# Test: DNDI: Lipophilicity (s.f. LogD) at pH 5
# Format: physicochemical
# Details: buffer
row,SMILES,logD
1,O=C(C(c1ccc(Cl)cc1)c1cccnc1)N1CCN(c2ccc(C(F)(F)F)cc2)CC1 (stereo unspecified),5.47

# Test system: not listed separately
# Test: DNDI: Protein binding in dog plasma
# Format: ADME, Canis lupus familiaris, 9615
# Details: read-out: % bound (converted)
row,SMILES,fraction unbound
1,O=C(C(c1ccc(Cl)cc1)c1cccnc1)N1CCN(c2ccc(C(F)(F)F)cc2)CC1 (stereo unspecified),0.012

# Test system: not listed separately
# Test: as §2
# Format: ADME, Canis lupus familiaris, 9615, Microsome
# Details: dog, microsomes
SMILES,half-life [h],microsomal CLint [µL/min/mg]
O=C(C(c1ccc(Cl)cc1)c1cccnc1)N1CCN(c2ccc(C(F)(F)F)cc2)CC1 (stereo unspecified),2.17,13

# Same assay, conditions: dog, microsomes; read-out: EH
row,SMILES,hepatic extraction ratio
1,O=C(C(c1ccc(Cl)cc1)c1cccnc1)N1CCN(c2ccc(C(F)(F)F)cc2)CC1 (stereo unspecified),0.38

# Test system: Trypanosoma cruzi
# Test: (§5) DNDI: Chagas in vitro
# Format: functional, Tulahuen C4 (LacZ)
# Details: not given
row,SMILES,IC90
1,N#Cc1ccc(C(C(=O)N2CCN(c3ccc(C(F)(F)F)cn3)CC2)c2cccnc2)cc1 (stereo unspecified),56.5 nM and 46.5 nM and > 100 nM
2,O=C(C(c1ccc(Cl)cc1)c1cccnc1)N1CCN(c2ccc(C(F)(F)F)cc2)CC1 (stereo unspecified),10 nM and 47.5 nM

# Test system: not listed separately
# Test: DNDI: Lipophilicity (gLogD) at pH 7.4
# Format: physicochemical
# Details: buffer
row,SMILES,chromatographic logD
1,O=C(C(c1ccc(Cl)cc1)c1cccnc1)N1CCN(c2ccc(C(F)(F)F)cc2)CC1 (stereo unspecified),4.5

# Test system: L6
# Test: (§6) DNDI: Cytotoxicity against L-6 rat myoblasts from skeletal muscle
# Format: toxicity, cell-based, Muscle tissue
# Details: l6
row,SMILES,IC50 [nM]
1,N#Cc1ccc(C(C(=O)N2CCN(c3ccc(C(F)(F)F)cn3)CC2)c2cccnc2)cc1 (stereo unspecified),78700
2,O=C(C(c1ccc(Cl)cc1)c1cccnc1)N1CCN(c2ccc(C(F)(F)F)cc2)CC1 (stereo unspecified),42400

# Test system: not listed separately
# Test: as §6
# Format: toxicity, cell-based, Muscle tissue, L6
# Details: rat, L6 rat skeletal muscle myoblasts
row,SMILES,IC50 [nM]
1,N#Cc1ccc(C(C(=O)N2CCN(c3ccc(C(F)(F)F)cn3)CC2)c2cccnc2)cc1 (stereo unspecified),> 100000
2,O=C(C(c1ccc(Cl)cc1)c1cccnc1)N1CCN(c2ccc(C(F)(F)F)cc2)CC1 (stereo unspecified),37700

# Test system: Trypanosoma cruzi
# Test: as §5
# Format: functional, organism-based, Tulahuen C4 (LacZ)
# Details: not given
row,SMILES,IC50
1,N#Cc1ccc(C(C(=O)N2CCN(c3ccc(C(F)(F)F)cn3)CC2)c2cccnc2)cc1 (stereo unspecified),23 nM and 12 nM and > 100 nM
2,O=C(C(c1ccc(Cl)cc1)c1cccnc1)N1CCN(c2ccc(C(F)(F)F)cc2)CC1 (stereo unspecified),7 nM

# Same assay, conditions: Trypanosoma cruzi, Tulahuen C4 (LacZ)
row,SMILES,IC50 [nM]
1,O=C(C(c1ccc(Cl)cc1)c1cccnc1)N1CCN(c2ccc(C(F)(F)F)cc2)CC1 (stereo unspecified),10

# Target: T1, Cytochrome P450 3A4
# Test: as §4
# Format: ADME
# Details: not given
row,SMILES,IC50 [nM]
1,O=C(C(c1ccc(Cl)cc1)c1cccnc1)N1CCN(c2ccc(C(F)(F)F)cc2)CC1 (stereo unspecified),1200

# Test system: not listed separately
# Test: DNDI: Solubility in 0.01M HCl at pH 2 determined by nephelometry
# Format: physicochemical
# Details: 0.01 M HCl
row,SMILES,solubility kinetic [µg/mL]
1,N#Cc1ccc(C(C(=O)N2CCN(c3ccc(C(F)(F)F)cn3)CC2)c2cccnc2)cc1 (stereo unspecified),> 100
2,O=C(C(c1ccc(Cl)cc1)c1cccnc1)N1CCN(c2ccc(C(F)(F)F)cc2)CC1 (stereo unspecified),> 100

# Target: T1, Cytochrome P450 3A4
# Test: as §4
# Format: ADME
# Details: not given
# Remark: another data set of the same source
row,SMILES,IC50 [nM]
1,O=C(C(c1ccc(Cl)cc1)c1cccnc1)N1CCN(c2ccc(C(F)(F)F)cc2)CC1 (stereo unspecified),7400

# Test system: not listed separately
# Test: as §2
# Format: ADME, 10090, Microsome
# Details: mouse, microsomes
SMILES,half-life [h],microsomal CLint [µL/min/mg]
O=C(C(c1ccc(Cl)cc1)c1cccnc1)N1CCN(c2ccc(C(F)(F)F)cc2)CC1 (stereo unspecified),0.5,59

# Same assay, conditions: mouse, microsomes; read-out: EH
row,SMILES,hepatic extraction ratio
1,O=C(C(c1ccc(Cl)cc1)c1cccnc1)N1CCN(c2ccc(C(F)(F)F)cc2)CC1 (stereo unspecified),0.72

# Target: T1, Cytochrome P450 3A4
# Test: as §4
# Format: ADME
# Details: not given
# Remark: another data set of the same source
row,SMILES,IC50 [nM]
1,O=C(C(c1ccc(Cl)cc1)c1cccnc1)N1CCN(c2ccc(C(F)(F)F)cc2)CC1 (stereo unspecified),20000

# Test system: not listed separately
# Test: as §1
# Format: physicochemical
# Details: read-out: Equilibrium
row,SMILES,solubility thermodynamic at 24 h [µg/mL]
1,O=C(C(c1ccc(Cl)cc1)c1cccnc1)N1CCN(c2ccc(C(F)(F)F)cc2)CC1 (stereo unspecified),1.3

# Test system: not listed separately
# Test: DNDI: Protein binding in human plasma
# Format: ADME
# Details: read-out: % bound (converted)
row,SMILES,fraction unbound
1,O=C(C(c1ccc(Cl)cc1)c1cccnc1)N1CCN(c2ccc(C(F)(F)F)cc2)CC1 (stereo unspecified),0.025

# Test system: not listed separately
# Test: DNDI: Protein binding in human liver microsomes
# Format: ADME
# Details: read-out: % bound (converted)
row,SMILES,fraction unbound
1,O=C(C(c1ccc(Cl)cc1)c1cccnc1)N1CCN(c2ccc(C(F)(F)F)cc2)CC1 (stereo unspecified),0.023

# Test system: Trypanosoma brucei rhodesiense
# Test: DNDI: HAT in vitro
# Format: functional, organism-based
# Details: ATCC 30027
row,SMILES,IC50 [nM]
1,N#Cc1ccc(C(C(=O)N2CCN(c3ccc(C(F)(F)F)cn3)CC2)c2cccnc2)cc1 (stereo unspecified),> 10000
2,O=C(C(c1ccc(Cl)cc1)c1cccnc1)N1CCN(c2ccc(C(F)(F)F)cc2)CC1 (stereo unspecified),> 10000
